Measurements: US10357481B2 (MERCK SHARP & DOHME CORP., priority 2015, dated 2019)

Molecular target: T1, human PDE2A1 (Homo sapiens, UniProt O00408)
T1 construct: GST; purchased BPS Bioscience (San Diego, Calif.) 60020; host or cells: insect cells
Assay: IMAP FP PDE selectivity panel, human PDE2A1
Format: biochemical
Conditions: Lab B; read-out: Human PDE2 Ki (nM) Lab B
Outline: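 Human PDE2A1 tested alongside PDE1–11 by IMAP fluorescence polarization at room temperature. Substrate was 50 nM FAM-cAMP plus 1000 nM cGMP, buffer pH 7.2 with MgCl2 and DTT, enzyme set for 20% conversion. Ten 3-fold compound dilutions; 60 min reaction, then IMAP binding solution, 1 h, parallel/perpendicular fluorescence read.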

T1 sequence (O00408 1-920 isoform O00408-2): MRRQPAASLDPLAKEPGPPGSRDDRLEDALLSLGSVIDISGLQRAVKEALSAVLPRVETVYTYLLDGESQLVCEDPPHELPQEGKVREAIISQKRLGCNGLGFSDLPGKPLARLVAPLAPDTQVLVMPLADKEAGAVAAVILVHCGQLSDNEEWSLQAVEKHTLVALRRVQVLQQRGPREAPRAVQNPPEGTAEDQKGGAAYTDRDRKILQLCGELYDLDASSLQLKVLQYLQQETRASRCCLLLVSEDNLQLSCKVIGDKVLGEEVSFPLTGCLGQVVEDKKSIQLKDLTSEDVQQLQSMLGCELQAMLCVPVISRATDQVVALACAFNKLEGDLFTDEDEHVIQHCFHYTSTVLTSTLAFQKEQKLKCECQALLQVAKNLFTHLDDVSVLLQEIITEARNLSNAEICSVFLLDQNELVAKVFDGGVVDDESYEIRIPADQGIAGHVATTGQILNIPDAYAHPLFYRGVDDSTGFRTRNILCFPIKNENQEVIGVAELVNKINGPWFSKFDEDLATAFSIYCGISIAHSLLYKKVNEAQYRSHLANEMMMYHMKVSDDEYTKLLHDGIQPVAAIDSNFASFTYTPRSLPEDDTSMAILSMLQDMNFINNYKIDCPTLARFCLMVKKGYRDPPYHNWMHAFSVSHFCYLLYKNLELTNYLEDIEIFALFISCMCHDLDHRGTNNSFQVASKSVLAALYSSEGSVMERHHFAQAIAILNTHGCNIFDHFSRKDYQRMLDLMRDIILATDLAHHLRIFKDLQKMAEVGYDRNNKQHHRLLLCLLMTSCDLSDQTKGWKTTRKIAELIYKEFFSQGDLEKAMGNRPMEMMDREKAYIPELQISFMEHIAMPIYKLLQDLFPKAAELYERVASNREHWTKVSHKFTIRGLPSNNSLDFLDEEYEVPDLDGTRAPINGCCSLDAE

Compound	Ki [nM]
CN(C)c1cc(N[C@@H](c2ccc(C(F)(F)F)c(F)c2)C(C)(C)O)n2ncnc2n1 (single isomer, unassigned) [Example 244]	377
Cc1cc(N(C)C(c2ccc(OC(F)(F)F)c(F)c2)C(C)(C)O)n2ncnc2n1 (single isomer, unassigned) [Example 247, (R)- or (S)-1-(3-Fluoro-4-(trifluoromethoxy)phenyl)-2-methyl-1-(methyl(5-methyl-[1,2,4]triazolo [1,5-a]pyrimidine-7-yl)amino)propan-2-ol]	24
Cc1cc(N(C)C(c2ccc(OC(F)(F)F)c(F)c2)C(C)(C)O)n2ncnc2n1 (single isomer, unassigned) [Example 248, (S)- or (R)-1-(3-Fluoro-4-(trifluoromethoxy)phenyl)-2-methyl-1-(methyl(5-methyl-[1,2,4]triazolo [1,5-a]pyrimidine-7-yl)amino) propan-2-ol]	> 2960
CC(C)(N)C(Nc1cc(C(F)(F)F)nc2ncnn12)c1ccc(C(F)(F)F)c(F)c1 (single isomer, unassigned) [Example 253, (R)- or (S)-1-(3-Fluoro-4-(trifluoromethyl)phenyl)-2-methyl-N^1-(5-(trifluoromethyl)-[1,2,4]triazolo [1,5-a]pyrimidin-7-yl) propane-1,2-diamine]	83
CC(C)(N)C(Nc1cc(C(F)(F)F)nc2ncnn12)c1ccc(C(F)(F)F)c(F)c1 (single isomer, unassigned) [Example 254, (S)- or (R)-1-(3-Fluoro-4-(trifluoromethyl)phenyl)-2-methyl-N^1-(5-(trifluoromethyl)-[1,2,4]triazolo [1,5-a]pyrimidin-7-yl) propane-1,2-diamine]	> 2960
Cc1cc(O[C@@H](c2ccc(C(F)(F)F)cc2)C(C)(C)C)n2ncnc2n1 (single isomer, unassigned) [Example 260]	14
Cc1cc(O[C@H](c2ccc(C(F)(F)F)cc2)C(C)(C)C)n2ncnc2n1 (single isomer, unassigned) [Example 261]	> 2960
Cc1cc(N[C@H](c2ccc(C(F)(F)F)c(F)c2)C(C)(C)O)nc2ncnn12 (single isomer, unassigned) [Example 291]	183
Cc1cc(N[C@@H](c2ccc(C(F)(F)F)c(F)c2)C(C)(C)O)nc2ncnn12 (single isomer, unassigned) [Example 292]	> 2960
CC(C)c1cc(NC(c2ccc(C(F)(F)F)cc2)C(C)(C)O)n2ncnc2n1 (stereo in doubt) [Example 156, (1S)-2-Methyl-1-{[5-(1-methylethyl)[1,2,4]triazolo[1,5-a]pyrimidin-7-yl]amino}-1-[4-(trifluoromethyl)phenyl]propan-2-ol]	636
CC(C)(O)C(Nc1cc(C2CC2)nc2ncnn12)c1ccc(C(F)(F)F)cc1 (stereo in doubt) [Example 157, (1S)-1-[(5-Cyclopropyl[1,2,4]triazolo[1,5-a]pyrimidin-7-yl)amino]-2-methyl-1-[4-(trifluoromethyl)phenyl]propan-2-ol]	37
CC(C)(C)c1cc(NC(c2ccc(C(F)(F)F)cc2)C(C)(C)O)n2ncnc2n1 (stereo in doubt) [Example 158, (1S)-1-[(5-tert-Butyl[1,2,4]triazolo[1,5-a]pyrimidin-7-yl)amino]-2-methyl-1-[4-(trifluoromethyl)phenyl]propan-2-ol]	~2340
Cc1cc(NC(c2ccc(OC(F)(F)F)cc2F)C(C)(C)O)n2nc(N)nc2n1 (stereo in doubt) [Example 258, (1S)-1-[(2-Amino-5-methyl[1,2,4]triazolo[1,5-a]pyrimidin-7-yl)amino]-1-[2-fluoro-4-(trifluoromethoxy)phenyl]-2-methylpropan-2-ol]	6
Cc1cc(N[C@H](C)c2ccc(C(F)(F)F)cc2)n2ncnc2n1 [Example 1, 5-Methyl-N-{(1R)-1-[4-(trifluoromethyl)phenyl]ethyl}[1,2,4]triazolo[1,5-a]pyrimidin-7-amine]	175
Cc1cc(N[C@@H](C)c2ccc(C(F)(F)F)cc2)n2ncnc2n1 [Example 2, 5-Methyl-N-{(1S)-1-[4-(trifluoromethyl)phenyl]ethyl}[1,2,4]triazolo[1,5-a]pyrimidin-7-amine]	~1540
Cc1cc(N[C@H](C)c2ccc(C(F)(F)F)c(F)c2)n2ncnc2n1 [Example 3, N-{(1R)-1-[3-Fluoro-4-(trifluoromethyl)phenyl]ethyl}-5-methyl[1,2,4]triazolo[1,5-a] pyrimidin-7-amine]	115
Cc1cc(N[C@H](C)c2ccc(CC(F)(F)F)cc2)n2ncnc2n1 [Example 4, 5-Methyl-N-{(1R)-1-[4-(2,2,2-trifluoroethyl)phenyl]ethyl}[1,2,4] triazolo[1,5-a]pyrimidin-7-amine]	108
Cc1cc(N[C@H](C)c2ccc(C(F)(F)F)c(Cl)c2)n2ncnc2n1 [Example 5, N-{(1R)-1-[3-Chloro-4-(trifluoromethyl)phenyl]ethyl}-5-methyl[1,2,4]triazolo[1,5-a] pyrimidin-7-amine]	113
Cc1cc(N[C@H](C)c2cc(F)c(C(F)(F)F)cc2F)n2ncnc2n1 [Example 6, N-{(1R)-1-[2,5-Difluoro-4-(trifluoromethyl)phenyl]ethyl}-5-methyl[1,2,4]triazolo[1,5-a] pyrimidin-7-amine]	482
Cc1cc(N[C@H](C)c2ccc(OC(F)(F)F)cc2)n2ncnc2n1 [Example 7, 5-Methyl-N-{(1R)-1-[4-(trifluoromethoxy)phenyl]ethyl} [1,2,4]triazolo[1,5-a]pyrimidin-7-amine]	132
Cc1cc(N[C@H](C)c2ccc(OC(F)(F)F)c(F)c2)n2ncnc2n1 [Example 8, N-{(1R)-1-[3-Fluoro-4-(trifluoromethoxy)phenyl]ethyl}-5-methyl[1,2,4]triazolo[1,5-a] pyrimidin-7-amine]	57
Cc1cc(N[C@H](C)c2ccc(OC(F)(F)F)c(Cl)c2)n2ncnc2n1 [Example 9, N-{(1R)-1-[3-Chloro-4-(trifluoromethoxy)phenyl]ethyl}-5-methyl[1,2,4]triazolo[1,5-a] pyrimidin-7-amine]	138
Cc1cc(N[C@H](C)c2ccc(SC(F)(F)F)cc2)n2ncnc2n1 [Example 10, 5-Methyl-N-[(1R)-1-{4-[(trifluoromethyl)sulfanyl]phenyl}ethyl][1,2,4]triazolo[1,5-a]pyrimidin-7-amine]	21
Cc1cc(N[C@H](C)c2ccc(SC(F)(F)F)c(F)c2)n2ncnc2n1 [Example 11, N-[(1R)-1-{3-Fluoro-4-[(trifluoromethyl)sulfanyl]phenyl}ethyl]-5-methyl[1,2,4]triazolo [1,5-a]pyrimidin-7-amine]	18
Cc1cc(N[C@H](C)c2ccc(S(F)(F)(F)(F)F)cc2)n2ncnc2n1 [Example 12, 5-Methyl-N-{(1R)-1-[4-(pentafluoro-λ^6-sulfanyl)phenyl)ethyl} [1,2,4]triazolo[1,5-a]pyrimidin-7-amine]	68
Cc1cc(N[C@H](C)c2ccc(C(C)C)cc2)n2ncnc2n1 [Example 13, 5-Methyl-N-{(1R)-1-[4-(1-methylethyl)phenyl]ethyl}[1,2,4] triazolo[1,5-a]pyrimidin-7-amine]	122
Cc1cc(N[C@H](C)c2ccc(C3CC3)c(F)c2)n2ncnc2n1 [Example 14, N-[(1R)-1-(4-Cyclopropyl-3-fluorophenyl)ethyl]-5-methyl[1,2,4]triazolo[1,5-a] pyrimidin-7-amine]	48
